US9108921B2, “Therapeutic compounds and compositions” (AGIOS PHARMACEUTICALS, INC, priority 2014, dated 2015)

Key:
PKR R510Q = PKR R510Q (Homo sapiens, UniProt P30613, R510Q); assay: PKR Mutant Assay, AC50 against PKR R510Q; assay type: biochemical; details: mutant PKR R510Q enzyme
Method in brief: (§1)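 PK-LDH coupled assay, RT. Enzyme + cpd + PEP/NADH/LDH, 60 min pre-incubation, no ADP. ADP 0.22-1.65 mM to initiate; A340 kinetic read. Cpd 11 pts, 3-fold, 100 μM top.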

PKR WT [1] = molecular target: T1, PKR WT (Homo sapiens, UniProt P30613); assay: PKR WT enzymatic AC50 assay; assay type: biochemical; details: wild type PKR
Method in brief: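 LDH-coupled NADH depletion read as A340 change at room temperature after ADP (0.22-1.65 mM) start. Compounds, tested from 100 μM final in 3-fold steps over 11 points with 1% DMSO, sat 60 min with enzyme (80-400 ng/well), PEP 0.1-0.5 mM and NADH 180 uM in Tris pH 7.5/KCl/MgCl2/DTT/BSA buffer.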

PKR WT [2] = molecular target: T1, PKR WT; assay: PKR WT cell based AC50 assay; details: wild type PKR
PKR R532W = PKR R532W (Homo sapiens, UniProt P30613, R532W); assay: PKR Mutant Assay, AC50 against PKR R532W; assay type: biochemical; details: mutant PKR R532W enzyme
Method in brief: as §1

T1 sequence (P30613 whole entry): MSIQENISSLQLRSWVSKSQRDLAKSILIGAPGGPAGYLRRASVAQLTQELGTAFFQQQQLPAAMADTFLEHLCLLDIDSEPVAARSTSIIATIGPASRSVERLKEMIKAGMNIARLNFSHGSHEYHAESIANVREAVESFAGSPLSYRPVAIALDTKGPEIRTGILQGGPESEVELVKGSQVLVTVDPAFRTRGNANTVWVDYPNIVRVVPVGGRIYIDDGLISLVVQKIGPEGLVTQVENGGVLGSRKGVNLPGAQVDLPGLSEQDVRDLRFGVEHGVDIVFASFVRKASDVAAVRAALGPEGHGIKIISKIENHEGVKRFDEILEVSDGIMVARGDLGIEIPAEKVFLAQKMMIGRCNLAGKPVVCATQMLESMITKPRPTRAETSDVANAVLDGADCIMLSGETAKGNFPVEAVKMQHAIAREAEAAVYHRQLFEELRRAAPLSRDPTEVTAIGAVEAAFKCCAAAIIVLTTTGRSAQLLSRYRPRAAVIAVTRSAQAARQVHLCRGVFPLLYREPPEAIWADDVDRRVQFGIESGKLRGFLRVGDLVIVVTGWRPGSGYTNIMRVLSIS
Chain of PKR R510Q (P30613 whole entry R510Q): as the sequence (P30613 whole entry) above, with R510Q counted along it
Chain of PKR R532W (P30613 whole entry R532W): as the sequence (P30613 whole entry) above, with R532W counted along it

| AC50 (PKR R510Q) [nM] | AC50 (PKR WT [1]) [nM] | AC50 (PKR WT [2]) [nM] | AC50 (PKR R532W) [nM] | SMILES |
| --- | --- | --- | --- | --- |
| 101 to 1000 | < 100 | 101 to 1000 | 101 to 1000 | COCCC1(O)CCN(C(=O)c2ccc(NS(=O)(=O)c3cccc4cccnc34)cc2)CC1 [Compound 225, N-[4-[4-hydroxy-4-(2-methoxyethyl)piperidine-1-carbonyl]phenyl]quinoline-8-sulfonamide] |
| 101 to 1000 | < 100 | 101 to 1000 | < 100 | O=C(c1ccc(NS(=O)(=O)c2cccc3cccnc23)c2ccccc12)N1CCC(O)(c2ccccc2Cl)CC1 [Compound 226, N-(4-(4-(2-chlorophenyl)-4-hydroxypiperidine-1-carbonyl)naphthalen-1-yl)quinoline-8-sulfonamide] |
| 1010 to 10000 | 101 to 1000 | < 100 | < 100 | O=C(c1ccc(NS(=O)(=O)c2cccc3cccnc23)cc1)N1CCC(O)(c2ccccc2O)CC1 [Compound 228, N-[4-[4-hydroxy-4-(2-hydroxyphenyl)piperidine-1-carbonyl]phenyl]quinoline-8-sulfonamide] |
| 101 to 1000 | 101 to 1000 | 101 to 1000 | 101 to 1000 | Cc1nc(F)ccc1C1(O)CCN(C(=O)c2ccc(NS(=O)(=O)c3ccc(F)c4cccnc34)cc2)CC1 [Compound 229, 5-fluoro-N-(4-(4-(6-fluoro-2-methylpyridin-3-yl)-4-hydroxypiperidine-1-carbonyl)phenyl)quinoline-8-sulfonamide] |
| 101 to 1000 | 101 to 1000 | 101 to 1000 | 101 to 1000 | O=C(c1ccc(NS(=O)(=O)c2cccc(Cl)c2Cl)cc1)N1CCC(O)(Cc2ccccc2)CC1 [Compound 237, N-(4-(4-benzyl-4-hydroxypiperidine-1-carbonyl)phenyl)-2,3-dichlorobenzenesulfonamide] |
| 1010 to 10000 | 101 to 1000 | 101 to 1000 | 101 to 1000 | CC(C)(O)CC1(O)CCN(C(=O)c2ccc(NS(=O)(=O)c3cccc4cccnc34)cc2)CC1 [Compound 241, N-(4-(4-hydroxy-4-(2-hydroxy-2-methylpropyl)piperidine-1-carbonyl)phenyl)quinoline-8-sulfonamide] |
| 1010 to 10000 | 101 to 1000 | < 100 | 101 to 1000 | O=C(c1ccc(NS(=O)(=O)c2cccc3nccnc23)cc1)N1CCC(O)(c2ccccc2)CC1 [Compound 243, N-(4-(4-hydroxy-4-phenylpiperidine-1-carbonyl)phenyl)quinoxaline-5-sulfonamide] |
| 1010 to 10000 | 101 to 1000 | 1010 to 10000 | 101 to 1000 | O=C(c1ccc(NS(=O)(=O)c2cccc3cccnc23)cc1)N1CCC(O)(c2cccc(OC(F)(F)F)c2)CC1 [Compound 245, N-(4-(4-hydroxy-4-(3-(trifluoromethoxy)phenyl)piperidine-1-carbonyl)phenyl)quinoline-8-sulfonamide] |
| 1010 to 10000 | 101 to 1000 | 1010 to 10000 | 101 to 1000 | CCOC(=O)C1(CC(C)C)CCN(C(=O)c2ccc(NS(=O)(=O)c3cccc4cccnc34)cc2)CC1 [Compound 250, Ethyl 4-isobutyl-1-(4-(quinoline-8-sulfonamido)benzoyl)piperidine-4-carboxylate] |
| 1010 to 10000 | 101 to 1000 | 1010 to 10000 | 101 to 1000 | O=C(c1ccc(NS(=O)(=O)c2cccc3cccnc23)cc1)N1CCC(O)(C2CC2)CC1 [Compound 260, N-(4-(4-cyclopropyl-4-hydroxypiperidine-1-carbonyl)phenyl)quinoline-8-sulfonamide] |
| 101 to 1000 | < 100 | < 100 | < 100 | O=C(c1ccc(NS(=O)(=O)c2cccc3cccnc23)cc1)N1CCC(O)(c2cnsc2)CC1 [Compound 353] |
| 101 to 1000 | < 100 | < 100 | < 100 | O=C(c1ccc(NS(=O)(=O)c2cccc3cccnc23)cc1)N1CCC(O)(c2cnsc2)CC1 [Compound 377] |
| 101 to 1000 | 101 to 1000 | 101 to 1000 | 101 to 1000 | CC(C)CC1(O)CCN(C(=O)c2ccc(NS(=O)(=O)c3cccc4ocnc34)cc2)CC1 [Compound 379, N-(4-(4-hydroxy-4-isobutylpiperidine-1-carbonyl)phenyl)benzo[d]oxazole-4-sulfonamide] |
| 101 to 1000 | < 100 | < 100 | 101 to 1000 | CC(C)CC1(O)CCN(C(=O)c2ccc(NS(=O)(=O)c3cccc(O)c3N)cc2)CC1 [Compound 380, 2-amino-3-hydroxy-N-(4-(4-hydroxy-4-isobutylpiperidine-1-carbonyl)phenyl)benzenesulfonamide] |
| 101 to 1000 | < 100 | < 100 | 101 to 1000 | Nc1c(O)cccc1S(=O)(=O)Nc1ccc(C(=O)N2CCC(O)(c3ccccc3Cl)CC2)cc1 [Compound 382, 2-amino-N-(4-(4-(2-chlorophenyl)-4-hydroxypiperidine-1-carbonyl)phenyl)-3-hydroxybenzenesulfonamide] |
| 101 to 1000 | < 100 | < 100 | < 100 | Cc1nc2c(S(=O)(=O)Nc3ccc(C(=O)N4CCC(O)(c5ccccc5Cl)CC4)cc3)cccc2o1 [Compound 383, N-(4-(4-(2-chlorophenyl)-4-hydroxypiperidine-1-carbonyl)phenyl)-2-methylbenzo[d]oxazole-4-sulfonamide] |
| < 100 | < 100 | < 100 | < 100 | CNc1nc2c(S(=O)(=O)Nc3ccc(C(=O)N4CCC(O)(CC(C)C)CC4)cc3)cc(Cl)cc2s1 [Compound 385, 6-chloro-N-(4-(4-hydroxy-4-isobutylpiperidine-1-carbonyl)phenyl)-2-(methylamino)benzo[d]thiazole-4-sulfonamide] |
| 101 to 1000 | < 100 | 101 to 1000 | < 100 | CC(F)(F)CCC1(O)CCN(C(=O)c2ccc(NS(=O)(=O)c3cccc4scnc34)cc2)CC1 [Compound 387, N-(4-(4-(3,3-difluorobutyl)-4-hydroxypiperidine-1-carbonyl)phenyl)benzo[d]thiazole-4-sulfonamide] |
| < 100 | < 100 | < 100 | < 100 | CC(C)CC1(O)CCN(C(=O)c2ccc(NS(=O)(=O)c3cccc4c(O)ncnc34)cc2)CC1 [Compound 388, 4-hydroxy-N-(4-(4-hydroxy-4-isobutylpiperidine-1-carbonyl)phenyl)quinazoline-8-sulfonamide] |
| < 100 | < 100 | < 100 | < 100 | O=C(c1ccc(NS(=O)(=O)c2cccc3scnc23)cc1)N1CCC(O)(CCCC(F)F)CC1 [Compound 389, N-(4-(4-(4,4-difluorobutyl)-4-hydroxypiperidine-1-carbonyl)phenyl)benzo[d]thiazole-4-sulfonamide] |
| < 100 | < 100 | < 100 | < 100 | C=C(CC1(O)CCN(C(=O)c2ccc(NS(=O)(=O)c3cccc4scnc34)cc2)CC1)C(F)(F)F [Compound 390, N-(4-(4-hydroxy-4-(2-(trifluoromethyl)allyl)piperidine-1-carbonyl)phenyl)benzo[d]thiazole-4-sulfonamide] |
| < 100 | < 100 | < 100 | < 100 | CC(CC1(O)CCN(C(=O)c2ccc(NS(=O)(=O)c3cccc4scnc34)cc2)CC1)C(F)(F)F (stereo not shown) [Compound 391] |
| < 100 | < 100 | < 100 | < 100 | CC(C)CCC1(O)CCN(C(=O)c2ccc(NS(=O)(=O)c3cccc4scnc34)cc2)CC1 [Compound 392, N-(4-(4-hydroxy-4-isopentylpiperidine-1-carbonyl)phenyl)benzo[d]thiazole-4-sulfonamide] |
| 101 to 1000 | < 100 | < 100 | < 100 | O=C(c1ccc(NS(=O)(=O)c2cccc3scnc23)cc1)N1CCC(O)(CCC=C(F)F)CC1 [Compound 393, N-(4-(4-(4,4-difluorobut-3-en-1-yl)-4-hydroxypiperidine-1-carbonyl)phenyl)benzo[d]thiazole-4-sulfonamide] |
| 101 to 1000 | < 100 | < 100 | < 100 | O=C(c1ccc(NS(=O)(=O)c2cccc3scnc23)cc1)N1CCC(O)(CCCC(F)(F)F)CC1 [Compound 394, N-(4-(4-hydroxy-4-(4,4,4-trifluorobutyl)piperidine-1-carbonyl)phenyl)benzo[d]thiazole-4-sulfonamide] |
| 101 to 1000 | < 100 | 101 to 1000 | < 100 | O=C(c1ccc(NS(=O)(=O)c2cccc3scnc23)cc1)N1CCC(O)(CCC(F)=C(F)F)CC1 [Compound 395, N-(4-(4-hydroxy-4-(3,4,4-trifluorobut-3-enyl)piperidine-1-carbonyl)phenyl)benzo[d]thiazole-4-sulfonamide] |
| 101 to 1000 | < 100 | < 100 | 101 to 1000 | CC(F)(F)CCC1(O)CCN(C(=O)c2ccc(NS(=O)(=O)c3cccc4nccnc34)cc2)CC1 [Compound 396, N-(4-(4-(3,3-difluorobutyl)-4-hydroxypiperidine-1-carbonyl)phenyl)quinoxaline-5-sulfonamide] |
| < 100 | < 100 | < 100 | < 100 | O=C(c1ccc(NS(=O)(=O)c2cccc3nccnc23)cc1)N1CCC(O)(CCCC(F)(F)F)CC1 [Compound 397, N-(4-(4-hydroxy-4-(4,4,4-trifluorobutyl)piperidine-1-carbonyl)phenyl)quinoxaline-5-sulfonamide] |
